The values below come from patent US10570152B2, “Antibacterial therapeutics and prophylactics” (VYOME BIOSCIENCES PVT. LTD., priority 2015, dated 2020).

Data set [1] is described as follows: Drug release assay of compound impregnated Smart set HV. Conditions: Smart set HV loaded; PBS buffer (pH 6.8):acetonitrile (9:1), 32° C., 7 days. The data set is classed as physicochemical. The method, then:
The drug release study with compound 2 and compound 10 were conducted in sample vial containing 1.5 ml of dissolution media i.e., PBS buffer (pH 6.8):acetonitrile (9:1). The sample was kept in incubator rotator at 32° C. at 40 rpm. The release medium was withdrawn at specified interval of time (2 hr, 4 hr, 6 hr, day 1, day 2, day 3, day 4, day 5, day 6, day 7 and replaced by fresh 1.5 ml dissolution medium each time. All the samples were kept at −20° C. till the analysis is done. The measurement of drug release was done by HPLC.

In data set [2] the test system is S. aureus CCARM 3505. Description: MIC by micro broth dilution. The data set is classed as cell-based. Conditions: Staphylococcus aureus, CCARM3505, read-out: Minimum inhibitory concentration (MIC). In short, it runs like this: (§1)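 Using CLSI guidance, compound is double-diluted in BHI broth and challenged with bacteria from a 0.5 McFarland suspension (about 1.5×10^8 cells/ml) diluted 100 times. After 24 h at 37° C., Alamar blue dye gives the MIC.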
(In general: Dilution methods test growth across graded concentrations, often in twofold steps.)

The test system of data set [3] is S. epidermidis S12-1. Description: MIC by micro broth dilution. Conditions: Staphylococcus epidermidis, S121, read-out: Minimum inhibitory concentration (MIC). The data set is classed as cell-based. In short, it runs like this: as §1
Data set [4] deals with E. faecium CCARM 5207. Briefly: MIC by micro broth dilution. The following applies: Enterococcus faecium, CCARM5207, read-out: Minimum inhibitory concentration (MIC). The data set is classed as cell-based. In a few lines: as §1
The subject of data set [5] is S. aureus ATCC 43300. Description: MIC by micro broth dilution. The data set is classed as cell-based. The following applies: Staphylococcus aureus, ATCC43300; S. aureus ATCC 43300; read-out: Minimum inhibitory concentration (MIC). In a few lines: as §1
For data set [6], the system named is S. aureus MTCC 6908. Description: MIC by micro broth dilution. Conditions: Staphylococcus aureus, MTCC6908, read-out: Minimum inhibitory concentration (MIC). The data set is classed as cell-based. In a few lines: as §1
For data set [7], the system named is S. epidermidis ATCC 35984. Briefly: MIC by micro broth dilution. The data set is classed as cell-based. The following applies: Staphylococcus epidermidis, ATCC35984, read-out: Minimum inhibitory concentration (MIC). In a few lines:
as §1

Data set [8] has as its system E. fecalis CCARM 5168. Briefly: MIC by micro broth dilution. The data set is classed as cell-based. The following applies: read-out: Minimum inhibitory concentration (MIC). In a few lines: as §1
For data set [9], the system named is P. aeruginosa CCARM 2204. Description: MIC by micro broth dilution. The data set is classed as cell-based. The following applies: Pseudomonas aeruginosa, CCARM2204, read-out: Minimum inhibitory concentration (MIC). In short, it runs like this: as §1
The test system of data set [10] is A. baumannii CCARM 12020. Description: MIC by micro broth dilution. The following applies: Acinetobacter baumannii, CCARM12020, read-out: Minimum inhibitory concentration (MIC). The data set is classed as cell-based. In a few lines: as §1
Data set [11] relates to P. aeruginosa CCARM 2161. Description: MIC by micro broth dilution. The data set is classed as cell-based. Conditions: Pseudomonas aeruginosa, CCARM2161, read-out: Minimum inhibitory concentration (MIC). In short, it runs like this: as §1
The subject of data set [12] is P. aeruginosa ATCC 27853. Description: MIC by micro broth dilution. The data set is classed as cell-based. The following applies: Pseudomonas aeruginosa, ATCC27853, read-out: Minimum inhibitory concentration (MIC). In a few lines:
as §1

Data set [13] deals with K. pneumonia ATCC 13883. Description: MIC by micro broth dilution. The following applies: for activity in words: Klebsiella pneumonia (susceptible); for MIC: Klebsiella pneumoniae, ATCC13883, K. pneumonia ATCC 13883, read-out: Minimum inhibitory concentration (MIC). The data set is classed as cell-based. In a few lines: as §1
Data set [14] concerns E. coli MTCC 1687. Description: MIC by micro broth dilution. The data set is classed as cell-based. Conditions: Escherichia coli, MTCC1687, read-out: Minimum inhibitory concentration (MIC). In a few lines:
as §1

Data set [15] concerns E. coli BAA 196. Description: MIC by micro broth dilution. The data set is classed as cell-based. Conditions: Escherichia coli, BAA196, read-out: Minimum inhibitory concentration (MIC). In short, it runs like this:
as §1

Data set [16] concerns E. aerogenes M2-1. Briefly: MIC by micro broth dilution. The following applies: Klebsiella aerogenes, M21, read-out: Minimum inhibitory concentration (MIC). The data set is classed as cell-based. In a few lines:
as §1

In data set [17] the test system is A. baumannii ATCC 1906. Briefly: MIC by micro broth dilution. The data set is classed as cell-based. Conditions: Acinetobacter baumannii, ATCC1906, read-out: Minimum inhibitory concentration (MIC). In a few lines:
as §1

The test system of data set [18] is E. aerogenes NCIM 5139. Briefly: MIC by micro broth dilution. Conditions: Klebsiella aerogenes, NCIM5139, read-out: Minimum inhibitory concentration (MIC). The data set is classed as cell-based. In a few lines:
as §1

The test system of data set [19] is A. baumannii CCARM 12001. Briefly: MIC by micro broth dilution. The data set is classed as cell-based. The following applies: Acinetobacter baumannii, CCARM12001, read-out: Minimum inhibitory concentration (MIC). In a few lines: as §1
Data set [20] deals with E. faecium NCIM 5421. Briefly: MIC by micro broth dilution. The data set is classed as cell-based. The following applies: Enterococcus faecium, NCIM5421, read-out: Minimum inhibitory concentration (MIC). In a few lines:
as §1

Data set [21] has as its system S. epidermidis S5-2. Briefly: Sequential ZIB (zone of inhibition) assay for PMMA beads. The data set is classed as cell-based, Staphylococcus epidermidis. Conditions: SmartSet HV impregnated beads. The method, then:
S. epidermidis S5-2 cells were grown in Brain Heart Infusion Agar (BHIA) at 37° C. for 24 h. 100 μl of 0.5 McFarland equal bacterial suspension was spread on BHA plates. Drug loaded beads were placed above these plates. Plates were incubated at 37° C. for 24 h. Next day, zone of inhibition (ZOI) the beads were measured following which the beads were placed on fresh BHA plates with bacterial suspension spread and this experiment was continued up to seven days. The drug release pattern was determined by compiling and analyzing the ZOI data of beads on each ZOI cycle up to seven days.

In data set [22] the test system is P. acnes CCARM 9010 induced paw inflammation. Briefly: Anti-inflammatory action in vivo, rat paw edema model. More on the design: species or system Sprague Dawley rats. Conditions: topical, 24 h post initiation of treatment (32 h post induction). The text has this: Host inflammation is one of the crucial clinical feature of most of the indications associated with bacterial infections. The inventors used an exemplary compound of the invention (Compound 2) to test the anti-inflammatory effects in vivo using rat paw edema model. Inflammation was induced using one of the opportunistic pathogens Propionibacterium acnes prevalent in implant associated infections. Sprague Dawley rats were used for the study and infection was induced by P. acnes CCARM 9010. An inoculum of 1×10^9 CFU/ml of the heat killed bacteria was injected to the plantar side of the right hind paw (˜2×10^7 CFU/paw) except in sham control where saline was injected. Treatments were initiated 8 h post injection by applying the test formulation of Compound 2 (30 mg) twice daily to the plantar surface of the right hind paw and gently rubbing 50 times with the index finger. Comparators Acnedap (dapsone 5% gel) and adapalene gel (Adaferin®) were applied twice daily and once daily based on clinical prescription dosage. Paw sizes were measured in millimeters using Vernier calipers at the start of the infection, 8 h post infection, and 24 h post initiation of treatment (32 h post induction of inflammation). The change in paw size, due to inflammation, was evaluated as the difference between the paw size measured at each time point and the basal paw size measured immediately before edema induction.

In data set [23] the test system is Gram negative pathogens. Description: MIC interpretations, Gram negative pathogens. The data set is classed as cell-based. As for the experimental part: MIC of DART molecules were determined by micro broth dilution as per CLSI guidelines. Bacterial strains were cultured in Brain Heart Infusion Agar (BHIA) at 37° C. for 24 h. For MIC determination, BHI broth (100 μl) was added to each of the wells of a 96 well plate. 100 μl of broth containing drug was added to the first well (1A to 1H) and thereafter serial (double) dilutions were carried out for up to 10 wells (column 1 to column 10 of the 96 well plate). Bacterial inoculum was prepared by adjusting the bacterial culture turbidity to 0.5 McFarland standard (approximately 1.5×10^8 cells/ml) and further diluted (100 times with sterile BHI broth). Diluted bacterial suspension (100 μl) was added to each well except sterility control wells (column 12 of 96 well plate). The plates were incubated at 37° C. for 24 h. The MIC of the test compound was measured after addition of Alamar blue dye.

Converted amounts (≈) assume the structure as drawn.

As for `CC1Sc2c(C(=O)O)c(=O)c3cc(F)c(N4CCN(Cc5ccc([N+](=O)[O-])o5)CC4)cc3n21` (stereo not shown) [Compound 10, 6-Fluoro-1-methyl-7-(4-((5-nitrofuran-2-yl)methyl)piperazin-1-yl)-4-oxo-1H,4H-[1,3]thiazeto[3,2-a]-quinoline-3-carboxylic acid], in data set [1], the “drug release from bone cement in words” value was “sustained release of active over a period of 7 days”. Also, the MIC in [2] was 1 µg/mL (≈ 2.11 µM); in data set [3] it was 2.25 µg/mL (≈ 4.74 µM); in data set [4], above 16 µg/mL; in [5] it was below 0.02 µg/mL; in [6], 0.04 µg/mL (≈ 0.0843 µM); in [7], below 0.03 µg/mL. The MIC in data set [8] was 1 µg/mL (≈ 2.11 µM); in data set [9], 4 µg/mL (≈ 8.43 µM); in [10] it was 8 µg/mL (≈ 16.9 µM); in [11] it was above 16 µg/mL; in data set [12], 1 µg/mL (≈ 2.11 µM); in [13], 0.25 µg/mL (≈ 0.527 µM). The MIC in data set [14] is 0.13 µg/mL (≈ 0.274 µM); in data set [15] it was 4 µg/mL (≈ 8.43 µM); in data set [16] it was 0.25 µg/mL (≈ 0.527 µM); in data set [17], 1 µg/mL (≈ 2.11 µM); in [18] it was 0.125 µg/mL (≈ 0.263 µM); in data set [19], above 16 µg/mL. In addition, in data set [20], the MIC was 0.125 µg/mL (≈ 0.263 µM). For the same compound, in data set [13], the activity in words entry is listed as “active”. Also, the “Sequential ZOI” value in [21] (Day-1) came to 2.2 cm; in data set [21] (Day-2) it was 2 cm; in data set [21] (Day-3), 1.8 cm; in data set [21] (Day-4), 1.7 cm; in data set [21] (Day-5), 1.7 cm; in data set [21] (Day-6), 1.6 cm. Also, in data set [21] (Day-7), the “Sequential ZOI” value stood at 1.8 cm.

For the compound `Nc1ccc(S(=O)(=O)c2ccc(N)cc2)cc1` [Dapsone, dapsone, reference compound], the “Inhibition of inflammation (%) at 24 h post treatment” value in [22] was found to be 43.82%.

Turning to `COc1ccc(-c2ccc3cc(C(=O)O)ccc3c2)cc1C12CC3CC(CC(C3)C1)C2` [Adapalene, adapalene, reference compound], the “Inhibition of inflammation (%) at 24 h post treatment” value in [22] is reported as 31.55%.

For `CC1SC2C(C(=O)O)C(=O)c3cc(F)c(N4CCN(CC(=O)c5ccccn5)CC4)cc3N12` (stereo not shown) [Compound 33, 6-Fluoro-1-methyl-4-oxo-7-(4-(2-oxo-2-(pyridin-2-yl)ethyl)piperazin-1-yl)-2a,3-dihydro-1H,4H-[1,3]thiazeto[3,2-a]quinoline-3-carboxylic acid], the MIC in [23] (Escherichia coli, resistant E. coli (MDR) and E. aerogens) was at most 1 µg/mL; in data set [2], above 16 µg/mL; in data set [3], 8 µg/mL (≈ 17 µM); in [4], 8 µg/mL (≈ 17 µM); in data set [5], 0.25 µg/mL (≈ 0.531 µM); in [6], 0.25 µg/mL (≈ 0.531 µM). Besides, the MIC in data set [7] amounted to 0.13 µg/mL (≈ 0.276 µM); in data set [8] it was 0.5 µg/mL (≈ 1.06 µM); in data set [9], 8 µg/mL (≈ 17 µM); in [10] it was 4 µg/mL (≈ 8.5 µM); in data set [11] it was 16 µg/mL (≈ 34 µM); in data set [12], 0.5 µg/mL (≈ 1.06 µM). For the same compound, the MIC in data set [13] is 0.06 µg/mL (≈ 0.128 µM); in data set [14] it was below 0.03 µg/mL; in [15], 2 µg/mL (≈ 4.25 µM); in data set [16], 0.06 µg/mL (≈ 0.128 µM); in data set [17], 0.06 µg/mL (≈ 0.128 µM); in data set [18], 0.0312 µg/mL (≈ 0.0663 µM). In addition, the MIC in data set [19] came out at 16 µg/mL (≈ 34 µM); in data set [20], 0.125 µg/mL (≈ 0.266 µM). Besides, in data set [23] (different resistant strains of P. aeruginosa, A. baumanni), the “bio-activity (MIC) range” value was in the range of 4 to 16 µg/mL. Also, the activity in words entry in data set [13] is reported as “active”.
